Assay results taken from patent US20230381142A1, “ANTILEISHMANIAL COMPOUNDS, COMPOSITIONS AND USE THEREOF” (TRUSTEES OF BOSTON UNIVERSITY, priority 2022, published 2023).
Marks after values point to notes of the source that are not given here.

What was measured:
[1] = UCSD infection assay, host cell cytotoxicity (CC50); type: cell-based; details: mouse, B10R host cells infected with L. donovani; footnote d
Procedure: (§1) Assay Conditions D: B10R cells (CVCL_0155) were seeded at 300 cells/well, and L. donovani WT promastigotes in stationary phase (7th day after passage) were added at 6,000 parasites/well (ratio of 20 parasites/cell). Both cells and parasites were seeded in DMEM High-Glucose medium (Gibco, cat. no. 11995065) containing 5% Fetal Bovine Serum (Sigma-Aldrich, cat. no. F2442) and 1% Penicillin-Streptomycin (Gibco, cat. no. 15140122). Cells and parasites were incubated in the presence of the compounds for 72 h at 37° C. and 5% C02. Plates were then fixed with 4% formaldehyde solution for at least 1 h, then washed with 1×PBS and stained with 5 μg/mL DAPI. Plates were read using an ImageXpress microscope (Molecular Devices) and analyzed by MetaXpress software (Molecular Devices) using a custom module optimized for this assay. […] Compounds were tested in a 10-point 2-fold serial dilution in 3 technical replicates, and 2 biological replicates. After 72 h, plates were fixed and stained with DAPI as described above. Images were acquired on an ImageXpress microscope, and analyzed using the MetaXpress custom module.
as §1, with “Compounds were obtained as 0.2 μmoles of dried film for primary single point screening. Each compound was diluted in DMSO to 10 μM final testing concentration. These compounds were tested in 2 biological replicates. The compounds were pre-spotted onto 384-well assay plates in single concentration.” for “Assay Conditions D:”, “CO2.” for “C02.”, “module. The DRCs were plotted, half-effective concentration (EC50) and half-cytotoxic concentration (CC50) were calculated using GraphPad Prism Software, version 6.05 (GraphPad Software, San Diego, CA).” for “module.”

[2] = tested on: L. donovani intracellular amastigotes in B10R cells; assay: UCSD L. donovani infection assay (Assay Conditions D); type: cell-based; details: B10R cells; for L. donovani amastigotes EC75 (B10R cells): footnote d; for EC50: Leishmania donovani, values marked d, read-out: L. donovani amastigotes EC50 (B10R cells)
Summary of the method: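 B10R cells (300/well) infected with stationary-phase L. donovani WT promastigotes at 20 parasites/cell in DMEM high-glucose, 5% FBS, with compounds 72 h at 37° C., 5% CO2. Formaldehyde-fixed, DAPI-stained, imaged by high-content microscopy; 10-point 2-fold dilutions (screen at 10 μM) gave EC50 and host CC50.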

[3] = tested on: L. major (strain Friedlin) in J774 cells; assay: J774 luciferase infection assay (Assay Conditions E); type: cell-based, Leishmania major; details: values marked e
Procedure: (§2) Assay Conditions E: J774 cells (ATCC J774A.1 were grown in DMEM supplemented with 10% Fetal Bovine Serum (FBS) and 1% Penicillin-Streptomycin at 37° C. in 5% CO2. Leishmania parasites expressing luciferase and GFP were grown as described in Front. Cell. Infect. Microbiol (2019) 9:237. J774 cells were seeded in microwell plates at 3×10^5 cells/mL density. Cells were washed with PBS and incubated with complete DMEM medium containing stationary phase Leishmania promastigotes (L. major: strain Friedlin; L. braziliensis, strain BA788) at a 1:10 parasite-cell ratio for 24 h. Cells were washed with PBS. Cells and compounds were incubated for 48 h at 37° C. and 5% C02. Compounds were tested in 8-point 2-fold serial dilution in 4 technical replicates, and 2 biological replicates. After 48 h, OneTiterGlo (Promega) (100 μl) was added to each well. Plates were incubated for 15 min and bioluminescence was measured using a plate reader (Molecular Devices). Effective concentration inducing 75% activity (EC75) was calculated using GraphPad Prism Software (version 9.0).

[4] = tested on: L. braziliensis (strain BA788) in J774 cells; assay: as above; type: cell-based, Leishmania braziliensis; details: footnote e
Procedure: as §2

[5] = GSK inMac assay, host cell toxicity readout (LD MAC); type: cell-based, human; details: human; footnote c; read-out: THP-1 Host Cell CC50
Summary of the method: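 Intramacrophage L. donovani assay in THP-1 macrophages; host toxicity taken from host cell number per well, giving MAC EC50. Run alongside amastigote-per-cell and infected-cell readouts in the same wells.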

[6] = tested on: L. donovani intracellular amastigotes infecting THP-1 macrophages; assay: GSK intramacrophage L. donovani assay (LD AMMAC, inMac; Assay Conditions C); type: cell-based; details: Leishmania donovani; THP-1 cells; values marked c; read-out: L. donovani amastigotes EC50 (THP-1 cells)
Summary of the method: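 L. donovani amastigotes within THP-1 macrophages; EC50 based on average intracellular amastigotes per infected cell (AMMAC). Infected-cell percentage (INFCELL) and host-cell number (MAC) also read, the latter as toxicity output.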

Compound | CC50 at 72 h [1] | L. donovani amastigotes EC75 (B10R cells) [2] | EC50 [2] | L. major amastigotes EC75 (J774 cells) [3] | L. braziliensis amastigotes EC75 (J774 cells) [4] | CC50 [5] | EC50 [6]
COc1ccc(N2C(=O)c3[nH]nc(CC(C)C)c3C2c2ccc(F)cc2C)cc1F (centres unmarked) [CMLD011562] | 10 µM | 0.2 µM | 0.2 µM | 2.7^e μM | 5.2 µM | 10.9 µM | –
COc1ccc(N2C(=O)c3[nH]nc(CC(C)C)c3C2c2ccccc2Cl)cc1 (centres unmarked) [CMLD010893] | 6.31 µM | 0.3 µM | – | 8.3^e μM | >10 µM | 20 µM | 1.3 µM
COc1ccc(N2C(=O)c3[nH]nc(CC(C)C)c3C2c2ccc(F)cc2OC)cn1 (centres unmarked) [CMLD011574] | – | 0.3 µM | 0.3 µM | 4.8^e μM | 8.2 µM | > 20 µM | –
Cc1cc(F)ccc1C1c2c(CC(C)C)n[nH]c2C(=O)N1c1ccc(N(C)C)cc1 (centres unmarked) [CMLD011561] | 7.94 µM | 0.1 µM | 0.1 µM | 1.9^e μM | 2.1 µM | 7.5 µM | –
COc1ccc(N2C(=O)c3[nH]nc(CC(C)C)c3C2c2ccccc2Cl)cn1 (centres unmarked) [BUCMD00686] | 10 µM | 0.5 µM | 1.1 µM | >10^e μM | 1.0 µM | 9.9 µM | –
COc1cc(F)ccc1C1c2c(CC(C)C)n[nH]c2C(=O)N1c1ccc(N(C)C)cc1 (centres unmarked) [CMLD011572] | 10 µM | – | – | 1.3^e μM | 1.9 µM | 8.5 µM | –
CC(C)Cc1n[nH]c2c1C(c1ccccc1Cl)N(c1ccc3c(c1)OCO3)C2=O (centres unmarked) [CMLD010902] | – | – | 0.2 µM | 7.3^e μM | >10 µM | 12.2 µM | –
Cc1cc(F)ccc1C1c2c(CC(C)C)n[nH]c2C(=O)N1c1ccc2c(c1)OCO2 (centres unmarked) [CMLD011564] | 12.6 µM | 0.1 µM | 0.1 µM | 1.4^e μM | 4.9 µM | 12.1 µM | –
COc1ccc(N2C(=O)c3[nH]nc(CC(C)C)c3C2c2ccc(F)cc2)cc1F (centres unmarked) [CMLD010884] | 20 µM | 0.8 µM | – | 7.2^e μM | >10 µM | 25.1 µM | 1.3 µM
CC(C)Cc1n[nH]c2c1C(c1ccc(F)cc1)N(c1ccc3c(c1)OCO3)C2=O (centres unmarked) [CMLD010901] | 12.6 µM | 0.4 µM | – | 6.0^e μM | 8.7 µM | 25.1 µM | 0.6 µM
CC(C)Cc1n[nH]c2c1C(c1ccccc1Br)N(c1ccc(N(C)C)cc1)C2=O (centres unmarked) [CMLD011554] | 6.31 µM | 0.1 µM | 0.1 µM | 5.2^c μM | 2.9 µM | 5.7 µM | –
CC(C)Cc1n[nH]c2c1C(c1ccccc1Br)N(c1ccc3c(c1)OCO3)C2=O (centres unmarked) [CMLD011548] | – | – | 0.3 µM | 1.8^e μM | 5.2 µM | > 20 µM | –
